The values that follow come from patent publication US20100086529A1, “METHODS OF MAKING CONCENTRATED FIBRINOGEN- AND PLATELET-CONTAINING COMPOSITIONS” (priority 2008, published 2010).

Series [1] in a line: Clottability of precipitated fibrinogen with bovine thrombin (ELISA of clot supernatant, by difference). The series is classed as biochemical, human. Conditions: blood collected into heparin 2 U/mL. Here is the method: The clottability of the recovered fibrinogen is evaluated as follows. A fibrinogen solution as prepared in Example 3 is prepared and used. To 1 mL of the fibrinogen solution 100 μL of bovine thrombin (Vital Products, Inc, Boynton Beach, Fla., 500 Units/mL) is added and the clot is allowed to stand for 30 minutes at 22° C. The clot is then centrifuged for 2 min at 3500 g and the supernatant removed. The amounts of fibrinogen present in the concentrated composition and in the clot supernatant are determined by ELISA, and the fibrinogen present in the clot is determined by difference. […] The amounts of fibrinogen and Factor XIII in the clot supernatant and in the concentrate can be measured with ELISA, and the amounts of fibrinogen and Factor XIII remaining in the clot can be determined by difference.

The target in the next series is T1, fibrinogen (Homo sapiens, UniProt P02671+P02675+P02679).
T1 construct: Fibrinogen is precipitated from pooled human plasma by addition of protamine sulfate; from tissue; host or cells: human blood plasma (pooled human plasma / platelet-poor plasma of healthy adult donors)
T1 sequence (P02671 20-629 limits assumed): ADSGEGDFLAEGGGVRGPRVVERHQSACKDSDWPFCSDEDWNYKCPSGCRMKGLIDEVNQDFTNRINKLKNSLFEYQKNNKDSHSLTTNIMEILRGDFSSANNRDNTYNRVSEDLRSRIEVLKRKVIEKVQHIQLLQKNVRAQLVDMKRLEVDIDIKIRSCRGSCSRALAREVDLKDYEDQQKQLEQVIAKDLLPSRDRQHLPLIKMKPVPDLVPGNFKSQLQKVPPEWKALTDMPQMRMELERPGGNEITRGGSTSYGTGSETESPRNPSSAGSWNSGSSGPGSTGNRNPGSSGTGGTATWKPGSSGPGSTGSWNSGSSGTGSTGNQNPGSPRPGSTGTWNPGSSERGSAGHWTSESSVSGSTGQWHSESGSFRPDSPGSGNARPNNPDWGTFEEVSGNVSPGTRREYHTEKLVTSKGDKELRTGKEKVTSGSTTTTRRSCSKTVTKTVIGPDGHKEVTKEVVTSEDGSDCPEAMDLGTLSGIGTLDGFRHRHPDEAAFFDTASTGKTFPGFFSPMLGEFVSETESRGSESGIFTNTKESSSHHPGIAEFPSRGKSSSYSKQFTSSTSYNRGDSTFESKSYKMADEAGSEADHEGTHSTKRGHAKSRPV
T1 sequence (P02675 31-491): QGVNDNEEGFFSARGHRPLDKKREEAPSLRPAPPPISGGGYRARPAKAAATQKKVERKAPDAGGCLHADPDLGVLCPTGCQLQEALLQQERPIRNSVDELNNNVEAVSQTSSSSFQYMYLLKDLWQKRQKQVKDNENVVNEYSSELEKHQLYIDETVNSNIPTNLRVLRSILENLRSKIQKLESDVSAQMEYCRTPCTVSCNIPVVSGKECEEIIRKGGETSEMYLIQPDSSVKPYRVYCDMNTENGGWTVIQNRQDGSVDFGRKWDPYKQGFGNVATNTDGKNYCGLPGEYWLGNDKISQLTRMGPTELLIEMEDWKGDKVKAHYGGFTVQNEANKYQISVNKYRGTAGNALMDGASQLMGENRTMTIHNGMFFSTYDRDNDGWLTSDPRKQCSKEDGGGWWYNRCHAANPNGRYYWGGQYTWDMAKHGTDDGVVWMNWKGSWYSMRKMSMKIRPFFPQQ
T1 sequence (P02679 27-453): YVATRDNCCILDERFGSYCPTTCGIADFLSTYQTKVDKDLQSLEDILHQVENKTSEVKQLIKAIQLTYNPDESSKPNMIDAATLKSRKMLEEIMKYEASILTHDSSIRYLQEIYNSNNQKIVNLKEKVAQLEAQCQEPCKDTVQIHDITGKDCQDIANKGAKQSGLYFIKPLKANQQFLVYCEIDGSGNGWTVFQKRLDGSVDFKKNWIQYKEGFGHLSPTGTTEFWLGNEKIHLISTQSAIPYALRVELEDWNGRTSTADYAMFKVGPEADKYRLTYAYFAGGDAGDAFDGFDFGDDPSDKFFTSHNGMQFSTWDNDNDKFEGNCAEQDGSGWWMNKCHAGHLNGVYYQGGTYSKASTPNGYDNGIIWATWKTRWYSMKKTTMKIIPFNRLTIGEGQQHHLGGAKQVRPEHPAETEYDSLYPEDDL
In words: Fibrinogen precipitation from plasma by protamine (recovery in the concentrate, ELISA / Clauss method). Conditions: n=4. Here is the method:
Fibrinogen is precipitated from pooled human plasma by addition of protamine sulfate (Sigma Chemical Co.). The protamine sulfate is used to prepare a stock solution of 40 mg/mL. The protamine is then added to the plasma (final concentration=10 mg/mL), mixed, and then centrifuged at 1000 g for 5 min to sediment the precipitate. The plasma is then decanted, and the remaining precipitate is dissolved in 0.2 M sodium citrate (37° C., pH 7.4).
A concentrated fibrinogen solution is prepared as in Example 3. The fibrinogen and Factor XIII concentrations are evaluated with an enzyme-linked immunosorbent assay (ELISA; AssayPro LLC, Brooklyn, N.Y.). The color intensity of the developed ELISA plates is measured with a Dynex MRX microplate reader (Dynex Technologies, Chantilly, Va.) and compared to a standard curve.
The fibrinogen concentration in the plasma is measured with the Clauss method, where plasma samples are clotted in the presence of excess thrombin in a CoaData 2000 Fibrintimer (Labor GmbH, Hamburg, Germany). The clotting times are recorded, and the fibrinogen concentration is calculated from a standard curve. […]
Heparin is used clinically in most procedures requiring anticoagulation. Heparin is evaluated for its effect on fibrinogen and Factor XIII harvesting and subsequent clotting of harvested fibrinogen. […]

Series [2] is described as follows: Adhesion strength of fibrin clots between strips of aortic tissue (Instron). To be noted: 15 mg/mL fibrinogen concentrate, calcium chloride 1.8 to 100 mM tested.
Procedure: The adhesive strength of fibrin clots is tested. The adhesion strength of the fibrin glue is assessed by sandwiching the fibrin glue between two strips of aortic tissue and then pulling them apart, simulating the performance of the sealant bonding to tissue. Bovine aorta is prepared by slitting the aorta lengthwise and laying it flat. The aorta is then cut into smaller strips, each approximately 3 cm long and 1 cm wide. […] Sealant is applied (0.1 mL), covering an area of approximately 1 cm^2, to the exposed media as shown. An overlapping joint is formed (approximately one-third the length of each strip) and allowed to “cure” while held in place with a 100 g weight for 30 minutes at 22° C. The non-overlapping ends of the cured samples are clamped in an Instron Model 1120 Universal Testing Instrument (max load 500 g), and a stress-strain curve is recorded while the sample is strained at 100 mm/min until the overlapping (glued) joint failed. Adhesion strength is taken as the maximum stress sustained divided by the joint area (indicated by the glue still visible after the joint failed and measured with a digital caliper).
The effect of cure time on tensile strength and adhesion strength is evaluated by allowing the molded clots and the glued aortic strips (described in Example 9) to cure for 1, 5, 10, 15, 30, and 60 minutes at 22° C. […]
Series [3] is described as follows: Tensile strength of fibrin clots (dog-bone mold, Instron). To be noted: 15 mg/mL fibrinogen concentrate, calcium chloride 1.8 to 100 mM tested.
Procedure: The tensile strength of fibrin clots is tested. […] The narrow neck provided the weakest point where the clot would break; the force at which the clot breaks serves as an indication of its tensile strength.
Test samples are prepared by simultaneously emptying syringes of fibrinogen and thrombin into a common duct where the mixture entered the mold through the sponge on one end and exited through the sponge on the other end. […] After the sample is given time to “cure,” (30 minutes unless various cure times were being tested), the plexiglass mold is dissembled, and the clot is transferred to an Instron Model 1120 Universal Testing Instrument (Instron Corp., Norwood, Mass., max load 500 g) where it is held on the ends via the sponge “grips”. A stress-strain curve is recorded while the sample is strained at 100 mm/min until it ruptured. The tensile strength is recorded as the maximum stress sustained.
Samples are prepared from a 15 mg/mL pure fibrinogen concentrate (as prepared in Example 4) as follows:
The effect of cure time on tensile strength and adhesion strength is evaluated by allowing the molded clots and the glued aortic strips (described in Example 9) to cure for 1, 5, 10, 15, 30, and 60 minutes at 22° C.
Controls of pooled human plasma (fibrinogen concentration ˜3 mg/mL), pure fibrinogen (15 mg/mL), and Tisseel (average fibrinogen concentration ˜95 mg/mL) are used. […]

Regarding heparin, in series [1], the “change in clottability of fibrinogen when heparin is present” value is reported as “no observed changes”. For the compound protamine sulfate, the “fibrinogen in the plasma precipitated (maximum yield)” value at fibrinogen (blood collected into heparin 2 U/mL, protamine 11 mg/mL in plasma) is listed as 95±1%. On fibrinogen (blood or plasma protamine concentration of 10 mg/mL), the “fibrinogen precipitated and recovered (percentage of fibrinogen in the original plasma)” value is on record as 96±4%. Turning to `[Ca+2].[Cl-].[Cl-]` [calcium chloride], the “calcium concentration giving maximum adhesion strength” value in series [2] lay in the range of 3.6 to 100 mM. Moreover, the “calcium concentration giving maximum tensile strength” value in series [3] was 8.9 to 50 mM.
